Measurements reported in the OligoGym collection.
Several values for one entry are separate records, joined by “and”; a condition that tells them apart may be missing. Identical values can stand only once. After the bases stand the sugars from the 5' end (letter, count) and the backbone: PS all phosphorothioate, else s phosphorothioate and o phosphodiester by linkage. HELM strings list units from the 5' end as sugar, base in round brackets, then linkage (d deoxyribose, r ribose, m 2'-O-methyl, p phosphodiester). Methylation of C is not given here. [moe] = 2'-O-(2-methoxyethyl) (MOE); [cEt] = constrained ethyl (cEt); [sp] = phosphorothioate linkage; e = 2'-O-(2-methoxyethyl) (MOE); k = constrained ethyl (cEt); d = 2'-deoxy (DNA)

Biological target: HBV
Details: ASO, HepG2, 0.0092593 µM

Substance	target mRNA inhibition
RNA1{[moe](G)[sp].[moe](G)[sp].[moe](C)[sp].d(A)[sp].d(T)[sp].d(A)[sp].d(G)[sp].d(C)[sp].d(A)[sp].d(G)[sp].d(C)[sp].d(A)[sp].[moe](G)[sp].[moe](G)[sp].[moe](A)[sp].[moe](T)[sp].[moe](G)}$$$$V2.0	16%

Same assay, conditions: ASO, HepG2, 0.0277778 µM

Substance	target mRNA inhibition
RNA1{[moe](G)[sp].[moe](G)[sp].[moe](C)[sp].d(A)[sp].d(T)[sp].d(A)[sp].d(G)[sp].d(C)[sp].d(A)[sp].d(G)[sp].d(C)[sp].d(A)[sp].[moe](G)[sp].[moe](G)[sp].[moe](A)[sp].[moe](T)[sp].[moe](G)}$$$$V2.0	11%

Same assay, conditions: ASO, HepG2, 0.07 µM

Substance	target mRNA inhibition
RNA1{[moe](G)[sp].[moe](G)[sp].[moe](C)[sp].d(A)[sp].d(T)[sp].d(A)[sp].d(G)[sp].d(C)[sp].d(A)[sp].d(G)[sp].d(C)[sp].d(A)[sp].[moe](G)[sp].[moe](G)[sp].[moe](A)[sp].[moe](T)[sp].[moe](G)}$$$$V2.0	68% and 66%
RNA1{[moe](A)[sp].[cEt](A)[sp].[cEt](G)[sp].d(A)[sp].d(A)[sp].d(G)[sp].d(A)[sp].d(T)[sp].d(G)[sp].d(A)[sp].d(G)[sp].d(G)[sp].d(C)[sp].[cEt](A)[sp].[cEt](T)[sp].[moe](A)}$$$$V2.0	62% and 65%
RNA1{[moe](G)[sp].[moe](T)[sp].d(G)[sp].d(C)[sp].d(A)[sp].d(G)[sp].d(A)[sp].d(G)[sp].d(G)[sp].d(T)[sp].d(G)[sp].[moe](A)[sp].[moe](A)[sp].[moe](G)[sp].[moe](C)[sp].[moe](G)}$$$$V2.0	53% and 42%
RNA1{[moe](G)[sp].[cEt](A)[sp].[cEt](G)[sp].d(G)[sp].d(C)[sp].d(A)[sp].d(T)[sp].d(A)[sp].d(G)[sp].d(C)[sp].d(A)[sp].d(G)[sp].d(C)[sp].[cEt](A)[sp].[cEt](G)[sp].[moe](G)}$$$$V2.0	64% and 67%
RNA1{[moe](A)[sp].[cEt](G)[sp].d(G)[sp].d(C)[sp].d(A)[sp].d(T)[sp].d(A)[sp].d(G)[sp].d(C)[sp].d(A)[sp].d(G)[sp].d(C)[sp].[cEt](A)[sp].[moe](G)[sp].[cEt](G)[sp].[moe](A)}$$$$V2.0	66% and 52%
RNA1{[moe](A)[sp].[moe](T)[sp].d(G)[sp].d(A)[sp].d(G)[sp].d(G)[sp].d(C)[sp].d(A)[sp].d(T)[sp].d(A)[sp].d(G)[sp].[moe](C)[sp].[moe](A)[sp].[moe](G)[sp].[moe](C)[sp].[moe](A)[sp].[moe](G)}$$$$V2.0	64%
RNA1{[moe](C)[sp].[moe](C)[sp].[moe](A)[sp].d(C)[sp].d(T)[sp].d(G)[sp].d(A)[sp].d(A)[sp].d(C)[sp].d(A)[sp].d(A)[sp].d(A)[sp].d(T)[sp].[cEt](G)[sp].[cEt](G)[sp].[cEt](C)}$$$$V2.0	77% and 78%
RNA1{[moe](G)[sp].[moe](C)[sp].[moe](A)[sp].[moe](T)[sp].[moe](A)[sp].d(G)[sp].d(C)[sp].d(A)[sp].d(G)[sp].d(C)[sp].d(A)[sp].d(G)[sp].d(G)[sp].d(A)[sp].[moe](T)[sp].[moe](G)}$$$$V2.0	57% and 54%
RNA1{[moe](A)[sp].[moe](G)[sp].[moe](A)[sp].d(A)[sp].d(G)[sp].d(T)[sp].d(C)[sp].d(C)[sp].d(A)[sp].d(C)[sp].d(C)[sp].d(A)[sp].[moe](C)[sp].[moe](G)[sp].[moe](A)[sp].[moe](G)[sp].[moe](T)}$$$$V2.0	41% and 44%
RNA1{[moe](A)[sp].[moe](C)[sp].[moe](G)[sp].[moe](T)[sp].[moe](G)[sp].[moe](C)[sp].d(A)[sp].d(G)[sp].d(A)[sp].d(G)[sp].d(G)[sp].d(T)[sp].d(G)[sp].d(A)[sp].d(A)[sp].[moe](G)[sp].[moe](C)}$$$$V2.0	78% and 58%
RNA1{[moe](A)[sp].[cEt](C)[sp].d(C)[sp].d(A)[sp].d(C)[sp].d(T)[sp].d(G)[sp].d(A)[sp].d(A)[sp].d(C)[sp].d(A)[sp].d(A)[sp].[cEt](A)[sp].[moe](T)[sp].[cEt](G)[sp].[moe](G)}$$$$V2.0	75% and 64%
RNA1{[moe](T)[sp].[moe](T)[sp].[moe](T)[sp].d(A)[sp].d(T)[sp].d(G)[sp].d(C)[sp].d(C)[sp].d(T)[sp].d(A)[sp].d(C)[sp].d(A)[sp].[moe](G)[sp].[moe](C)[sp].[moe](C)[sp].[moe](T)}$$$$V2.0	51% and 38%
RNA1{[moe](A)[sp].[moe](G)[sp].d(A)[sp].d(G)[sp].d(G)[sp].d(T)[sp].d(G)[sp].d(A)[sp].d(A)[sp].d(G)[sp].d(C)[sp].[moe](G)[sp].[moe](A)[sp].[moe](A)[sp].[moe](G)[sp].[moe](T)}$$$$V2.0	40% and 48%
RNA1{[moe](A)[sp].[moe](C)[sp].[moe](C)[sp].[moe](A)[sp].[moe](A)[sp].[moe](T)[sp].d(T)[sp].d(T)[sp].d(A)[sp].d(T)[sp].d(G)[sp].d(C)[sp].d(C)[sp].d(T)[sp].d(A)[sp].[moe](C)[sp].[moe](A)}$$$$V2.0	5% and 18%
RNA1{[moe](T)[sp].[moe](G)[sp].d(A)[sp].d(G)[sp].d(G)[sp].d(C)[sp].d(A)[sp].d(T)[sp].d(A)[sp].d(G)[sp].d(C)[sp].[moe](A)[sp].[moe](G)[sp].[moe](C)[sp].[moe](A)[sp].[moe](G)[sp].[moe](G)}$$$$V2.0	73% and 72%
RNA1{[moe](G)[sp].[moe](G)[sp].d(T)[sp].d(G)[sp].d(A)[sp].d(A)[sp].d(G)[sp].d(C)[sp].d(G)[sp].d(A)[sp].d(A)[sp].[moe](G)[sp].[moe](T)[sp].[moe](G)[sp].[moe](C)[sp].[moe](A)}$$$$V2.0	65% and 62%
RNA1{[moe](T)[sp].[moe](G)[sp].[moe](A)[sp].[moe](G)[sp].d(G)[sp].d(C)[sp].d(A)[sp].d(T)[sp].d(A)[sp].d(G)[sp].d(C)[sp].d(A)[sp].d(G)[sp].[moe](C)[sp].[moe](A)[sp].[moe](G)}$$$$V2.0	56% and 53%
RNA1{[moe](G)[sp].[moe](A)[sp].[moe](A)[sp].[moe](C)[sp].[moe](C)[sp].d(A)[sp].d(C)[sp].d(T)[sp].d(G)[sp].d(A)[sp].d(A)[sp].d(C)[sp].d(A)[sp].d(A)[sp].[moe](A)[sp].[moe](T)}$$$$V2.0	34% and 36%
RNA1{[moe](G)[sp].[moe](A)[sp].[moe](A)[sp].d(G)[sp].d(T)[sp].d(C)[sp].d(C)[sp].d(A)[sp].d(C)[sp].d(C)[sp].d(A)[sp].d(C)[sp].[moe](G)[sp].[moe](A)[sp].[moe](G)[sp].[moe](T)[sp].[moe](C)}$$$$V2.0	33% and 23%
RNA1{[moe](G)[sp].[moe](C)[sp].d(A)[sp].d(G)[sp].d(A)[sp].d(G)[sp].d(G)[sp].d(T)[sp].d(G)[sp].d(A)[sp].d(A)[sp].[moe](G)[sp].[moe](C)[sp].[moe](G)[sp].[moe](A)[sp].[moe](A)}$$$$V2.0	58% and 57%
RNA1{[moe](C)[sp].[cEt](A)[sp].[cEt](C)[sp].d(A)[sp].d(G)[sp].d(C)[sp].d(T)[sp].d(T)[sp].d(G)[sp].d(G)[sp].d(A)[sp].d(G)[sp].d(G)[sp].[cEt](C)[sp].[cEt](T)[sp].[moe](T)}$$$$V2.0	11% and 0%
RNA1{[moe](C)[sp].[moe](G)[sp].[moe](G)[sp].d(G)[sp].d(C)[sp].d(A)[sp].d(A)[sp].d(C)[sp].d(A)[sp].d(T)[sp].d(A)[sp].d(C)[sp].[moe](C)[sp].[moe](T)[sp].[moe](T)[sp].[moe](G)}$$$$V2.0	56% and 45%
RNA1{[moe](A)[sp].[moe](G)[sp].[moe](A)[sp].d(T)[sp].d(G)[sp].d(A)[sp].d(G)[sp].d(G)[sp].d(C)[sp].d(A)[sp].d(T)[sp].d(A)[sp].d(G)[sp].[cEt](C)[sp].[cEt](A)[sp].[cEt](G)}$$$$V2.0	50% and 70%
RNA1{[moe](A)[sp].[moe](C)[sp].[moe](T)[sp].d(G)[sp].d(G)[sp].d(A)[sp].d(G)[sp].d(C)[sp].d(C)[sp].d(A)[sp].d(C)[sp].d(C)[sp].[moe](A)[sp].[moe](G)[sp].[moe](C)[sp].[moe](A)[sp].[moe](G)}$$$$V2.0	67% and 65%
RNA1{[moe](T)[sp].[moe](G)[sp].[moe](A)[sp].[moe](A)[sp].d(G)[sp].d(C)[sp].d(G)[sp].d(A)[sp].d(A)[sp].d(G)[sp].d(T)[sp].d(G)[sp].d(C)[sp].[moe](A)[sp].[moe](C)[sp].[moe](A)[sp].[moe](C)}$$$$V2.0	62% and 51%
RNA1{[moe](C)[sp].[moe](C)[sp].d(A)[sp].d(A)[sp].d(T)[sp].d(T)[sp].d(T)[sp].d(A)[sp].d(T)[sp].d(G)[sp].d(C)[sp].[moe](C)[sp].[moe](T)[sp].[moe](A)[sp].[moe](C)[sp].[moe](A)}$$$$V2.0	13% and 22%
RNA1{[moe](G)[sp].[cEt](A)[sp].[cEt](A)[sp].d(C)[sp].d(C)[sp].d(A)[sp].d(C)[sp].d(T)[sp].d(G)[sp].d(A)[sp].d(A)[sp].d(C)[sp].d(A)[sp].[cEt](A)[sp].[cEt](A)[sp].[moe](T)}$$$$V2.0	65% and 53%

Same assay, conditions: ASO, HepG2, 0.0833333 µM

Substance	target mRNA inhibition
RNA1{[moe](G)[sp].[moe](G)[sp].[moe](C)[sp].d(A)[sp].d(T)[sp].d(A)[sp].d(G)[sp].d(C)[sp].d(A)[sp].d(G)[sp].d(C)[sp].d(A)[sp].[moe](G)[sp].[moe](G)[sp].[moe](A)[sp].[moe](T)[sp].[moe](G)}$$$$V2.0	40%

Same assay, conditions: ASO, HepG2, 0.25 µM

Substance	target mRNA inhibition
RNA1{[moe](G)[sp].[moe](G)[sp].[moe](C)[sp].d(A)[sp].d(T)[sp].d(A)[sp].d(G)[sp].d(C)[sp].d(A)[sp].d(G)[sp].d(C)[sp].d(A)[sp].[moe](G)[sp].[moe](G)[sp].[moe](A)[sp].[moe](T)[sp].[moe](G)}$$$$V2.0	66%

Biological target: KRAS
Details: ASO, A431, 0.125 µM

Substance	target mRNA inhibition
GTGTTTATGCAATGTT (sugars kkkddddddddkdkdk, PS)	70% and 58%

Same assay, conditions: ASO, A431, 0.185 µM

Substance	target mRNA inhibition
GTGTTTATGCAATGTT (sugars kkkddddddddkdkdk, PS)	27%

Same assay, conditions: ASO, A431, 0.556 µM

Substance	target mRNA inhibition
GTGTTTATGCAATGTT (sugars kkkddddddddkdkdk, PS)	47%

Same assay, conditions: ASO, A431, 1.667 µM

Substance	target mRNA inhibition
GTGTTTATGCAATGTT (sugars kkkddddddddkdkdk, PS)	73%

Same assay, conditions: ASO, A431, 2 µM

Substance	target mRNA inhibition
CCATGCTGTGAAACTC (sugars k3 d10 k3, PS)	26%
TTAGTGATTAGGTCAA (sugars k3 d9 k3 e1, PS)	53%
GTGCAATGGTGACAAC (sugars k3 d10 k3, PS)	38%
TGAAAAGTGTTTATGC (sugars k3 d10 k3, PS)	40%
GTGTTTATGCAATGTT (sugars kdddddddddkekeke, PS)	41%
CAGTGTTAAGAGAACT (sugars kdddddddddkekeke, PS)	40%
TGATTTGTCAGCAGGA (sugars kkkddddddddkekek, PS)	41%
CTATTAGGAGTCTTTA (sugars k3 d10 k3, PS)	34%
TCTTTTAATGTCACAA (sugars k3 d10 k3, PS)	46%
AACGAGAATGGATATT (sugars k3 d10 k3, PS)	4%
TTATGCAATGTTAATT (sugars k3 d10 k3, PS)	3%
TTAAAAAAAAAATTAA (sugars k3 d10 k3, PS)	0%
CAAGATGACACTAATA (sugars k3 d10 k3, PS)	18%

Same assay, conditions: ASO, A431, 5 µM

Substance	target mRNA inhibition
GTGTTTATGCAATGTT (sugars kkkddddddddkdkdk, PS)	81%
